Entries after “also recorded” stand apart in the source; their conditions may differ.
What was measured:
INS-1 cells = experiment: Proliferation of INS-1 cells ([methyl-3H] thymidine incorporation); type: cell-based, rat; details: wells coated with peptide and blocked with BSA, vs BSA coated control wells
Description: To investigate if FOL-005 and FOL-014 could induce proliferation of β-cells we used INS-1 cells. Rat INS-1 cells were seeded in 96-well plates in RPMI medium with supplement and after 2 hours the medium was changed to RPMI without supplement. During the proliferation experiment the cells were incubated at different test conditions (FOL-005, FOL-014, coated or in solution, 48 h incubation) and during the last 20 hours of culture period the cells were pulsed with 1 μ Ci/well of [methyl-3H] thymidine. The cells were then harvested onto glass fiber filters using a FilterMate harvester. The filters were air dried, and the bound radioactivity was measured using a liquid scintillation counter. To study whether FOL-005 influenced β-cell proliferation, INS-1 cells were treated with increasing amounts of soluble FOL-005 (0.06-6 μM) during 48 hours and proliferation was measured with radiolabeled thymidine incorporation into newly synthesized DNA.

mouse pancreatic islets = experiment: Insulin secretion from isolated mouse pancreatic islets (Examples 5 and 7); type: cell-based; details: 60 min
Description: Mouse pancreatic islets were isolated from 8-week old C57BL/6J male mice (Taconic). Mice were sacrificed by an overdose of isoflurane and cervical dislocation. 3 ml of 0.9 U/ml collagenase P was injected into the pancreatic duct to inflate the pancreas. The Pancreas was then removed and collagen digested for 19 min at 37° C. The samples Were vigorously shaken to disrupt the tissue. The digest was transferred into ice cold Hank's Balanced Salt Solution (HBSS) with Ca^2+ and Mg^2+. The suspension was allowed to sit for 10 min to allow the islet to sink, and the islets were washed in fresh HBSS four times. The islets were then hand-picked and sorted according to size. Islets (n=3 per well in a 96 well plate) were pre-incubated in KRB buffer during 10 min 37° C., pH 7.4, supplemented with 10 mM HEPES, 0.1% bovine serum albumin. After pre-incubation, the buffer was changed and islets were incubated at different test conditions in new KRB buffer with 0.1% bovine serum albumin (non-treated ctrl, FOL-005 peptide, or GLP-1) for 60 min at 37° C. Immediately after incubation, an aliquot of the buffer was removed and frozen for subsequent assay of insulin.
Mouse pancreatic islets were isolated from 8-week old C57BL/6J male mice as described under example 5. The islets were then hand-picked and sorted according to size. Islets (n=5 per well in a 96 well plate) were pre-incubated in 200 μl KRB buffer during 10 min 37° C., pH 7.4, supplemented with 10 mM HEPES, 0.1% bovine serum albumin. Following pre-incubation, the buffer was changed and islets were incubated in different test conditions in new KRB buffer with 0.1% bovine serum albumin (non-treated ctrl, FOL-014 peptide, and GLP-1) for 60 min at 37° C. Immediately after incubation, an aliquot of the buffer was removed and frozen for subsequent assay of insulin.

wild type C57bl/6 mice = experiment: Intraperitoneal glucose tolerance test (IPGTT); type: in vivo, mouse; details: 15 min before 2 g glucose/kg ip, vs saline control
Description: Whole blood was collected for glucose and insulin measurements from 10-week-old wild type maleC57bl/6 mice. After a 4 hour fast, the mice were divided into three groups and given an intraperitoneal injection (ip) of either saline, 30 nmol/kg peptide (FIG. 9A) or 200 nmol/kg peptide (FIG. 9B). 15 min after the FOL-014 or saline (control) injections, the mice were administered 2 g of glucose/kg ip. Blood glucose concentrations were measured at 5, 15, 30, 45 and 60 minutes after the glucose injection. Statistical calculations were performed using student's t-test. […] In addition, the difference was significant at 15, 30 and 45 minutes.

BB lyp/lyp rats = experiment: Onset of type 1 diabetes in BB lyp/lyp rats; type: in vivo, rat; details: 100 nmol/kg subcutaneously 3 times/week from day 40, vs placebo
Description: BB lyp/lyp rats were randomized for placebo (sodium chloride, 9 mg/ml) or FOL-014 treatment 3 times/week from day 40 until onset of type 1 diabetes, defined as plasma glucose levels ≥11.1 mM. The dose of 100 nmol/kg FOL-014 peptide in saline or placebo (saline) was administered subcutaneously and the animals were terminated immediately upon exceeding critical plasma glucose levels. The difference between FOL-014 treated animals and animals receiving placebo treatment was significant both when expressed as average age for onset of type 1 diabetes (FIG. 10A) and when described as percentage of animals developing type 1 diabetes per day (FIG. 10B).

[1] = test system: human pancreatic β-cell line 1.2B4; experiment: Insulin secretion from 1.2B4 human β-cells; type: cell-based; details: 100 nM peptide, 16.7 mM glucose, 60 minutes
Description: In order to test the effect of FOL-014 and FOL-056 in human cells, the human pancreatic β-cell line 1.2B4 were cultured at 37° C. and 5% CO2 in RPMI 1640 supplemented with 10% fetal bovine serum, 50 IU/mL penicillin, 50 mg/L streptomycin, 1 mM L-glutamine. 1.2B4 cells were seeded in 24-well plates in RPMI medium and following overnight incubation, the medium was removed before pre-incubation for 40 min at 37° C. in Krebs-Ringer bicarbonate buffer, pH 7.4, supplemented with 10 mM HEPES, 0.1% bovine serum albumin and 1.0 mM glucose. Following pre-incubation, the buffer was exchanged with fresh Krebs-Ringer buffer as described above and supplemented with specific glucose concentrations, 1 mM or 16.7 mM. FOL-014, FOL-056 or Liraglutide was added at a concentration of 100 nM in the presence of 16.7 mM glucose. Immediately after 60 minutes incubation at 37° C., an aliquot of the buffer was removed and frozen for subsequent insulin ELISA assay. (FIG. 18)

db/db mice = experiment: HbA1c in db/db mice after 4 weeks of dosing; type: in vivo, mouse; details: 100 nmol/kg subcutaneously, 5 days per week for 4 weeks, vs PBS control
Description: To investigate the long-term effect of FOL-014 and FOL-056 in diabetic mice, db/db mice were dosed with 100 nmol/kg peptide subcutaneously, 5 days per week for 4 weeks. Control mice were injected with PBS. After 4 weeks of treatment the mice were terminated and 25 μl whole blood was immediately frozen for subsequent HbA1c analysis. (FIG. 21).

Question: How did the “proliferation of INS-1 cells” value (INS-1 cells) turn out when “KPLAEIDSIELSYGIK (MISC_FEATURE - peptide, FOL-014)” was run?
Answer: Its value is “stimulated proliferation compared to control; also recorded: induced more proliferation compared to only BSA coated wells”.

Question: And the insulin secretion (mouse pancreatic islets; Example 7, 0.6 μM)?
Answer: Its insulin secretion is “did not affect insulin secretion; also recorded: had no effect on insulin secretion”.

Question: What about the insulin secretion (mouse pancreatic islets; Example 7, 6 μM, vs unstimulated control islets) of the same sequence?
Answer: The insulin secretion was “secreted more insulin compared to unstimulated control islets”.

Question: What about the plasma glucose levels (wild type C57bl/6 mice; 30 nmol/kg ip) of the same sequence?
Answer: The plasma glucose levels was “lowered the plasma glucose levels with a significant effect at 45 minutes after the glucose injection”.

Question: And the plasma glucose levels (wild type C57bl/6 mice; 200 nmol/kg ip)?
Answer: Its plasma glucose levels is “significantly lowered the plasma glucose levels as compared to the control when measured as area under the curve; also recorded: significantly lowered the plasma glucose levels as compared to the control at 15 minutes, 30 minutes and 45 minutes”.

Question: And the “onset of type 1 diabetes” value (BB lyp/lyp rats)?
Answer: The value was “significantly delayed the onset of type-1 diabetes; also recorded: significant delay in the onset of diabetes”.

Question: And the insulin secretion [1]?
Answer: Its insulin secretion is “increase the insulin secretion capacity in 1.2B4 human β-cells; also recorded: significantly increased the insulin secretion as compared with cells treated with an un-supplemented high glucose buffer”.

Question: And the HbA1c (db/db mice)?
Answer: Its HbA1c is “reduce the HbA1c in db/db mice as compared with the untreated control group; also recorded: significantly lower HbA1c”.

Source: patent publication US20240327459A1, “PEPTIDE FRAGMENTS FOR TREATMENT OF DIABETES” (Follicum AB, priority 2018, published 2024)
